Results: patent publication US4680172A, “Devices and methods for treating memory impairment” (Ciba-Geigy Corporation, priority 1985, dated 1987)
Where “and” joins values, the source holds several entries; their conditions need not be identical. Identical values can stand only once.

Legend:
[1] = Transdermal diffusion (flux) of aqueous arecoline through human cadaver skin, Franz diffusion cell; format: in vitro ADME
Protocol: In order further to test the permeability of arecoline to human skin, the transdermal diffusion of aqueous arecoline was monitored using human cadaver skin mounted in a Franz diffusion cell; see Current Problems in Dermatology, 7, 58 (1978) and the description of Franz diffusion cells and apparatus published by the Crown Glass Company, a copy of which may be found in the file history of this case. The flux, J, of each solution was calculated from a plot of change in concentration versus time.
The transdermal diffusion of arecoline was studied in several aqueous buffers from pH values of 6.4 to 9.0.
Most of the skin samples were obtained from the back area of human cadavers. There was no systematic study to determine if the choice of donor-side would change the rate; however, it is presumed that the rate will be fastest in portions of the anatomy where the stratum corneum is relatively thin (chest, back, anterior forearm) and slowest where the stratum corneum is thickest (heel of hand, bottom of foot).
Franz diffusion cells utilize the finite dose technique of in vitro drug delivery. Human cadaver skin was mounted in a diffusion chamber where it remined in constant contact with solution on both sides. The stratum corneum was in contact with a thin layer of concentrated drug in solution (donor side). The receiver side contained a constantly stirred, isotonic saline solution maintained at 32° C. Diffusion of the compound was monitored by removing aliquots from the receiver side and analyzing these samples by HPLC.
The human skin used in all experiments was obtained from a medical school. All cadavers were refrigerated at death and excision was performed within 24 hours post-mortem. The skin was first treated with Betadine surgical scrub (Povidone-Iodine solution) and surfactant (the skin was scrubbed if dirty), rinsed with sterile water and then with Betadine rinse solution. The skin was then air-dried and swabbed with mineral oil prior to excision. A dermatome was used for excising the skin to […]. (-350 microns) thickness. Saline solution was used to rinse the excess mineral oil from the skin prior to treatment with Eagle's minimole essential medium (minerals, amino acids and sugars). To this solution, 15% glycerol was added and the skin was allowed to set for two hours. It was then removed from solution, packaged and frozen in liquid N2. The samples, packed in dry ice were shipped in styrofoam containers and kept frozen until use.
For the flux experiments, skin samples were removed from the freezer and thawed immediately prior to use. The samples were examined visually for any tears or holes, then cut into smaller pieces, peeled from the gauze backing and mounted across the diffusion chamber with the stratum corneum side up. The donor-side cap was placed on top and the unit was clamped in place. The receiver-side was filled with a saline solution and stirred. The material in the receiver-side was sterile normal saline solution, which was adjusted to approximate the tonicity of the buffer solution on the donor-side. One ml of the drug solution was pipeted onto the donor-side of the skin and 50 microliter aliguots were withdrawn from the receiver-side at the various time intervals. These samples were injected onto an HPLC column under the aforementioned conditions.
The donor solutions were prepared as 1.0 M (approximately 20% W/V) arecoline HCl or arecoline HBr in a phosphate, citrate, borate buffer adjusted to various pH values. Each flux experiment was repeated three to five times.

[2] = Partition coefficient (K) between aqueous phase and mineral oil; format: physicochemical; settings: pH 10 buffer
Text: (§1) The partion coefficient (K) of a compound between an aqueous phase and mineral oil has been used as an indication of its potential to diffuse across skin. Permeability appears to be optimal when the partition coefficient is 1. Arecoline in pH 10 buffer (99.9% dissociation to the free base) yielded partition coefficients of 0.756 and 0.654 for concentrations of 1.0 M and 0.01 M, respectively. Thus, arecoline in its free base form is expected to have good in vitro transdermal flux.

[3] = Stability of arecoline in solution; format: physicochemical; settings: alkaline buffers
[4] = Dissociation to the free base in buffer; format: physicochemical; settings: pH 10 buffer
Text: as §1

For COC(=O)C1=CCCN(C)C1 [arecoline], the “rate of arecoline diffusion versus pH” value ([1]; aqueous buffers, pH 6.4 to 9.0) was “increases with increasing pH values”, the “difference in rate between Caucasian and Negro skin” value ([1]; lower pH values (below 8)) was “differences were observed between these two skin types” and the Flux ([1]; pH 6.4 of 1M solution, skin RC (Right Chest), donor N) was 0.017 mg/cm^2 /hr. For the same compound, the “Mean Flux” value ([1]; pH 6.4 of 1M solution, skin donor N) was 0.017 mg/cm^2 /hr, the “Mean Flux” value ([1]; pH 7.0 of 1M solution, does not include the Negro skin) was 0.069 mg/cm^2 /hr and the Flux ([1]; pH 7.0 of 1M solution, skin RB (Right Back), donor C) was 0.0545 mg/cm^2 /hr. and 0.0678 mg/cm^2 /hr. and 0.0833 mg/cm^2 /hr. For the same compound, the Flux ([1]; pH 7.0 of 1M solution, skin RB (Right Back), donor N) was 0.0101 mg/cm^2 /hr. and 0.0057 mg/cm^2 /hr, the “Mean Flux” value ([1]; pH 7.5 of 1M solution, does not include the Negro skin) was 0.185 mg/cm^2 /hr and the Flux ([1]; pH 7.5 of 1M solution, skin RB (Right Back), donor C) was 0.1651 mg/cm^2 /hr. and 0.1486 mg/cm^2 /hr. and 0.2246 mg/cm^2 /hr. and 0.2003 mg/cm^2 /hr. For the same compound, the Flux ([1]; pH 7.5 of 1M solution, skin RB (Right Back), donor N) was 0.0383 mg/cm^2 /hr, the “Mean Flux” value ([1]; pH 8.0 of 1M solution, C and N skin) was 0.448 mg/cm^2 /hr and the Flux ([1]; pH 8.0 of 1M solution, skin LB (Left Back), donor C) was 0.4524 mg/cm^2 /hr. and 0.3817 mg/cm^2 /hr. For the same compound, the “amount transferred across skin” value ([1]; pH 9.0, across 5 cm^2 in 24 hours) was “approximately 85 mgs”, the “Mean Flux” value ([1]; pH 9.0 of 1M solution, C and N skin) was 0.837 mg/cm^2 /hr and the Flux ([1]; pH 9.0 of 1M solution, skin LB (Left Back), donor C) was 0.8868 mg/cm^2 /hr. and 0.8154 mg/cm^2 /hr. The Flux ([1]; pH 9.0 of 1M solution, skin RB (Right Back), donor C) was 0.8551 mg/cm^2 /hr, the “difference in rate between Caucasian and Negro skin” value ([1]; pH values of 8 and 9) was “There does not appear to be any difference in rate” and the “partition coefficient (K)” value ([2]; 0.01 M) was 0.654. The “partition coefficient (K)” value ([2]; 1.0 M) was 0.756, the “stability of the free base in solution” value [3] was “rapidly hydrolizes” and the “dissociation to the free base” value [4] was 99.9%.
